Values joined by “and” are separate entries in the source; they are usually repeats but may differ in a detail not shown here. Identical values can stand only once.
biological target: human mGluR5A (Homo sapiens, UniProt P41594); assay: mGluR5 FLIPR Assay; type: cell-based; conditions: positive modulator activity; HEK293 (ZF) cells with human mGluR5A and rat GLAST; Ca++ response to ~EC10 glutamate
Procedure: HEK293 (ZF) cells stably transfected with human mGluR5A (pIRES neo) and the rat glutamate-aspartate transporter (GLAST; pIRES puro) are grown in a monolayer culture at 37° C. in 5% CO2 and fed with Minimum Essential Medium (MEM) supplemented with 10% dialysed fetal bovine serum. 24 hours prior to assay, cells are enzymatically dissociated from the culture flask (Trypsin, 0.25%), spun down (1000 rpm, 3 min), resuspended, and plated on Greiner black clear bottomed PDL-coated 384-well plates at a density of 30 thousand cells/well. […] Plates are incubated in dye at 37° C. in 5% CO2 for 60 minutes prior to delivery of test compounds in assay buffer. Test compounds are incubated with cells in the presence of dye for 10 minutes prior to being read on the FLIPR platform (Molecular Devices). A Ca^++ signal is induced in the assay plates via the delivery of an ˜EC10 concentration of the endogenous agonist 1-glutamate; images are acquired at 1 Hz for 100 seconds post-delivery of agonist stimulus. Positive modulator activity (i.e. the ability of test compounds to increase the Ca^++ response to a sub-maximal concentration of agonist) is normalized to a saturating concentration of a known mGluR5 PAM run in each assay plate. An EC50 concentration of test compounds is derived from 4-parameter logistic curve fits of transformed fluoresence data via proprietary software suite.

Chain of human mGluR5A (P41594 21-1180 isoform P41594-2): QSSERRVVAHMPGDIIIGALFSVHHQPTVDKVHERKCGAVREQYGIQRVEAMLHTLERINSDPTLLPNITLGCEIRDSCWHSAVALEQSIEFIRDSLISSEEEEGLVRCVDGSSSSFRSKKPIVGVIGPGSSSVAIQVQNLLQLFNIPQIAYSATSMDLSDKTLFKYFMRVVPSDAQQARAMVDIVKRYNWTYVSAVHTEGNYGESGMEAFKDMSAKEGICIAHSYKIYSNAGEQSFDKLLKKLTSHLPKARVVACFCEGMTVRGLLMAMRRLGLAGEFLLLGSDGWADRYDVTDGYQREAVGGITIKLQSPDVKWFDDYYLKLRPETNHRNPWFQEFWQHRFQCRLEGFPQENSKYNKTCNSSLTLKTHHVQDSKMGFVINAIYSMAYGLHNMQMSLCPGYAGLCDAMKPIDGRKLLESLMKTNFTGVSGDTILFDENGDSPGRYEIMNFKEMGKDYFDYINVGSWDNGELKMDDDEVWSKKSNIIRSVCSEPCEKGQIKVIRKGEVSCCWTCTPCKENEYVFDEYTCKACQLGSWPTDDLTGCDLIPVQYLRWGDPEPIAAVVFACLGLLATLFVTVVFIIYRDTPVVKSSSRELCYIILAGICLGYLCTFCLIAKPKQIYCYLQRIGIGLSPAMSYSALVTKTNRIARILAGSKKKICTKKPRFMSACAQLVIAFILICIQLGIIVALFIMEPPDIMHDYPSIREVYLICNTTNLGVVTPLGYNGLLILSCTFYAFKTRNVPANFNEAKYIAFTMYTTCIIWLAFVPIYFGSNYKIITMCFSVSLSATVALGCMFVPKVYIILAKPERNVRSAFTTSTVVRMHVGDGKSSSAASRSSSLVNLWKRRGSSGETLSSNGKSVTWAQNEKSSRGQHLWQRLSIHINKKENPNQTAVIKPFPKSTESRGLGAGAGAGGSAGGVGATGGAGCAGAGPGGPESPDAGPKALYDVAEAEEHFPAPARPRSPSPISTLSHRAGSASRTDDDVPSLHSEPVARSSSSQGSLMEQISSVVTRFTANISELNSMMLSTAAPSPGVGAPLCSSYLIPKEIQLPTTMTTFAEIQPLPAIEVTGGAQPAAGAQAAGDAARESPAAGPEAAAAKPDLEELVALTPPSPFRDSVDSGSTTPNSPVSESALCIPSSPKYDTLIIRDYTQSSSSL

| SMILES | EC50 |
| --- | --- |
| O=C1N[C@@H](c2cncc(C#Cc3ccccc3)c2)[C@H](c2ccccc2Cl)O1 (single isomer, unassigned) [Example 363] | < 100 nM |
| O=C1N[C@H](c2cncc(C#Cc3ccccc3)c2)[C@@H](c2ccccc2Cl)O1 (single isomer, unassigned) [Example 364] | > 1000 nM |
| O=C1N[C@@H](c2cccc(C#Cc3ccccc3)n2)[C@H](c2cccnc2)O1 (single isomer, unassigned) [Example 366] | > 1000 nM |
| O=C1N[C@H](c2cccc(C#Cc3ccccc3)n2)[C@@H](c2cccnc2)O1 (single isomer, unassigned) [Example 367] | > 1000 nM |
| O=C1N[C@H](c2cccc(C#Cc3cnccn3)n2)[C@@H](c2ccc(F)cc2)O1 (single isomer, unassigned) [Example 368] | 100 to 1000 nM |
| O=C1N[C@@H](c2cccc(C#Cc3cnccn3)n2)[C@H](c2ccc(F)cc2)O1 (single isomer, unassigned) [Example 369] | > 1000 nM |
| O=C1N[C@H](c2cccc(C#Cc3ncccc3F)n2)[C@@H](c2ccc(F)cc2)O1 (single isomer, unassigned) [Example 370] | < 100 nM and 31.8 nM |
| O=C1N[C@H](c2cccc(C#Cc3ccnc(F)c3)n2)[C@@H](c2ccc(F)cc2)O1 (single isomer, unassigned) [Example 372] | < 100 nM |
| O=C1N[C@H](c2cc(C#Cc3ccccc3)cnc2F)[C@@H](c2ccccc2F)O1 (single isomer, unassigned) [Example 375] | < 100 nM |
| C[C@@]1(c2cccc(C#Cc3ccccc3)n2)NC(=O)O[C@@H]1c1ccccc1F (single isomer, unassigned) [Example 376] | 100 to 1000 nM |
| C[C@]1(c2cccc(C#Cc3ccccc3)n2)NC(=O)O[C@H]1c1ccccc1F (single isomer, unassigned) [Example 377] | > 1000 nM |
| C[C@]1(c2cccc(C#Cc3ccccc3)n2)NC(=O)O[C@@H]1c1ccccc1F (single isomer, unassigned) [Example 378] | < 100 nM |
| C[C@@]1(c2cccc(C#Cc3ccccc3)n2)NC(=O)O[C@H]1c1ccccc1F (single isomer, unassigned) [Example 379] | > 1000 nM |
| C[C@]1(c2cncc(C#Cc3ccccc3)c2)NC(=O)O[C@@H]1c1cc(F)ccc1F (single isomer, unassigned) [Example 407] | < 100 nM |
| COc1cccc([C@@H]2OC(=O)N[C@H]2c2cccc(C#Cc3ccc(C(F)(F)F)cc3)c2)c1 (stereo in doubt) [Example 120, (4S,5S)-5-(3-methoxyphenyl)-4-(3-((4-(trifluoromethyl)phenyl)ethynyl)phenyl)oxazolidin-2-one] | > 1000 nM |
| COc1cccc([C@@H]2OC(=O)N[C@H]2c2cccc(C#Cc3ccccc3F)c2)c1 (stereo in doubt) [Example 122, (4S,5S)-4-(3-((2-fluorophenyl)ethynyl)phenyl)-5-(3-methoxyphenyl)oxazolidin-2-one] | > 1000 nM |
| COc1cccc([C@H]2OC(=O)N[C@@H]2c2cccc(C#Cc3cccc(F)c3)n2)c1 [Example 8, (4R,5R)-4-(6-((3-Fluorophenyl)ethynyl)pyridin-2-yl)-5-(3-methoxyphenyl)oxazolidin-2-one] | > 1000 nM |
| COc1cccc([C@H]2OC(=O)N[C@@H]2c2cccc(C#Cc3ccccc3F)n2)c1 [Example 9, (4R,5R)-4-(6-((2-Fluorophenyl)ethynyl)pyridin-2-yl)-5-(3-methoxyphenyl)oxazolidin-2-one] | > 1000 nM |
| O=C1N[C@H](c2ccnc(C#Cc3cccnc3)c2)[C@@H](c2ccccc2)O1 [Example 23, (4R,5R)-5-Phenyl-4-(2-(pyridin-3-ylethynyl)pyridin-4-yl)oxazolidin-2-one] | < 100 nM |
| O=C1N[C@H](c2cncc(C#Cc3ccccn3)c2)[C@@H](c2cccc(F)c2)O1 [Example 34, (4R,5R)-5-(3-Fluorophenyl)-4-(5-(pyridin-2-ylethynyl)pyridin-3-yl)oxazolidin-2-one] | > 1000 nM |
| O=C1N[C@H](c2cncc(C#Cc3cccnc3)c2)[C@@H](c2cccc(F)c2)O1 [Example 35, (4R,5R)-5-(3-Fluorophenyl)-4-(5-(pyridin-3-ylethynyl)pyridin-3-yl)oxazolidin-2-one] | < 100 nM and 6.3 nM |
| COc1cccc([C@H]2OC(=O)N[C@@H]2c2cccc(C#Cc3cccc(C)n3)c2)c1 [Example 48, (4R,5R)-5-(3-Methoxyphenyl)-4-(3-((6-methylpyridin-2-yl)ethnyl)phenyl)oxazolidin-2-one] | > 1000 nM |

Second part, the molecule after the results:

| EC50 | SMILES |
| --- | --- |
| < 100 nM | O=C1N[C@H](c2cncc(C#Cc3ccccc3)c2)[C@@H](c2cccc(Cl)c2)O1 (single isomer, unassigned) [Example 362] |
| > 1000 nM | O=C1NC(c2cccc(C#Cc3ncccc3F)n2)C(c2ccc(F)cc2)O1 (single isomer, unassigned) [Example 371] |
| > 1000 nM | O=C1N[C@@H](c2cccc(C#Cc3ccnc(F)c3)n2)[C@H](c2ccc(F)cc2)O1 (single isomer, unassigned) [Example 373] |
| > 1000 nM | O=C1N[C@@H](c2cc(C#Cc3ccccc3)cnc2F)[C@H](c2ccccc2F)O1 (single isomer, unassigned) [Example 374] |
| 100 to 1000 nM | C[C@@]1(c2cncc(C#Cc3ccccc3)c2)NC(=O)O[C@H]1c1cc(F)ccc1F (single isomer, unassigned) [Example 406] |
| < 100 nM and 39 nM | COc1cccc([C@H]2OC(=O)N[C@@H]2c2cccc(C#Cc3ccccc3)c2)c1 [Example 1, (+)-(4R,5R)-5-(3-Methoxyphenyl)-4-(3-(phenylethynyl)phenyl)oxazolidin-2-one] |
| > 30000 nM | COc1cccc([C@@H]2OC(=O)N[C@H]2c2cccc(C#Cc3ccccc3)c2)c1 [Example 2, (4S,5S)-5-(3-Methoxyphenyl)-4-(3-(phenylethynyl)phenyl)oxazolidin-2-one] |
| > 1000 nM | COc1cccc([C@H]2OC(=O)N[C@@H]2c2cccc(C#Cc3ccc(F)cc3)n2)c1 [Example 7, (4R,5R)-4-(6-((4-Fluorophenyl)ethynyl)pyridin-2-yl)-5-(3-methoxyphenyl)oxazolidin-2-one] |
| > 1000 nM | O=C1N[C@H](c2cccc(C#Cc3ccccc3F)n2)[C@@H](c2ccccc2)O1 [Example 12] |
| < 100 nM | O=C1N[C@H](c2ccnc(C#Cc3ccccc3)c2)[C@@H](c2ccccc2)O1 [Example 20, (4R,5R)-5-Phenyl-4-(2-(phenylethynyl)pyridin-4-yl)oxazolidin-2-one] |
| > 1000 nM | O=C1N[C@H](c2ccnc(C#Cc3ccccn3)c2)[C@@H](c2ccccc2)O1 [Example 22, (4R,5R)-5-Phenyl-4-(2-(pyridin-2-ylethynyl)pyridin-4-yl)oxazolidin-2-one] |
| < 100 nM | COc1cccc([C@H]2OC(=O)N[C@@H]2c2cccc(C#Cc3cccnc3)c2)c1 [Example 46] |
| < 100 nM and 7.4 nM | COc1cccc([C@H]2OC(=O)N[C@@H]2c2cccc(C#Cc3ccccn3)c2)c1 [Example 47, (4R,5R)-5-(3-Methoxyphenyl)-4-(3-(pyridin-2-ylethynyl)phenyl)oxazolidin-2-one] |
| > 1000 nM | COc1cncc(C#Cc2cccc([C@H]3NC(=O)O[C@@H]3c3cccc(OC)c3)c2)c1 [Example 49] |
| 100 to 1000 nM and 353 nM | COc1cccc([C@H]2OC(=O)N[C@@H]2c2cccc(C#Cc3cncc(Cl)c3)c2)c1 [Example 50, (4R,5R)-4-(3-((5-Chloropyridin-3-yl)ethnyl)phenyl)-5-(3-methoxyphenyl)oxazolidin-2-one] |

Reference: patent USRE49735E1 (BRISTOL-MYERS SQUIBB COMPANY, priority 2010, dated 2023)
